Laboratory results: PMC6467890, “A semi-synthetic neolignan derivative from dihydrodieugenol B selectively affects the bioenergetic system of Leishmania infantum and inhibits cell division” (Scientific Reports, 2019)
Where two headings read alike, the source gives them in different places.

Legend:
[1] = tested on: L. (L.) infantum promastigotes; test: Mitochondrial membrane electric potential, JC-1, flow cytometry; format: cell-based, Leishmania (L.) infantum; details: 190 µM, 1 and 2 h, compared to untreated parasites
Experimental: Promastigotes (2 × 10^6 parasites/well) were treated for 1 and 2 h with compound 2 (190 µM) in HBSS + Glu at 24 °C. JC-1 dye (Molecular Probes) was added at a final concentration of 10 μM. The parasites were incubated in the dark for 20 min and washed to eliminate the non-internalized dye. The fluorescence was measure using Attune NxT flow cytometer (Thermo Fisher Scientific) with excitation filter wavelengths of 488 nm and emission of 530 (BL-1) and 574 nm (BL-2). The mitochondrial membrane potential was determined using BL-2/BL-1 ratio[49]. Maximum depolarization was obtained in the presence of CCCP (100 μM) and untreated parasites were used as negative control. Unstained parasites were used to set background fluorescence.

[2] = tested on: intracellular amastigotes of L. (L.) infantum; test: Intracellular amastigotes in peritoneal macrophages, light microscopy counting (infection index); format: cell-based, Leishmania (L.) infantum; details: for IC50: intracellular amastigotes in peritoneal macrophages, 96 h, read-out: IC50 (µM) ± SD Amastigote
Experimental: Peritoneal macrophages (1 × 10^5 cell/well) in 16-well slide chambers (NUNC) were infected with amastigotes at a ratio of 10:1 (amastigotes/macrophage) and treated with compounds (60 to 10 µM) for 96 h. Stained slides (Giemsa) were counted using light microscopy and IC50 determined by the infection index. Miltefosine was used as standard and untreated cells as a negative control.

[3] = tested on: L. (L.) infantum promastigotes; format: cell-based, Leishmania (L.) infantum
Experimental: Promastigotes (2 × 10^6 parasites/well) were incubated in 96-well black polystyrene microplates with 1 µM of Sytox Green (Molecular Probes) in HANKS’ balanced salt solution (Sigma-Aldrich) supplemented with 10 mM D-Glucose (Sigma-Aldrich, HBSS + Glu) at 24 °C for 15 min in the dark[45]. Compound 2 (190 µM) was added and the fluorescence was measured every 20 min for up to 2 h, using a fluorimetric microplate reader (FilterMax F5 Multi-Mode, Molecular Devices) with excitation and emission wavelengths of 485 and 520 nm, respectively. Maximum permeabilization was obtained using 0.5% Triton X-100 and untreated parasites were used as negative control.

[4] = tested on: L. (L.) infantum promastigotes; test: ATP levels, bioluminescence assay; format: cell-based, Leishmania (L.) infantum; details: 190 µM, 1 and 2 h, compared to untreated parasites
Experimental: Promastigotes (2 × 10^6 parasites/well) were treated with compound 2 (190 µM) in HBSS + Glu for 1 and 2 h at 24 °C. Untreated parasites and treated with CCCP (25 µM) were included as negative and positive controls, respectively. The promastigotes were lysed using 0.5% Triton X-100 and mixed with a standard reaction buffer (ATP Determination Kit, Molecular Probes) containing DTT (1 mM), luciferin (0.5 mM) and firefly luciferase (1.25 µg/mL)[50]. Luminescence intensity was measured using a luminometer (FilterMax F5 Multi-Mode, Molecular Devices) and the amount of ATP was calculated from an ATP standard curve.

[5] = tested on: bone marrow-derived macrophages, uninfected and infected with L. (L.) infantum; test: Cytokine level quantification, CBA Mouse Inflammation Kit, flow cytometry; format: cell-based, BALB/c mice; details: 48 h
Experimental: Bone marrow-derived macrophages (5 × 10^5 cells/well) in 24-well plates were infected with amastigotes at a ratio of 10:1 (amastigotes/macrophage) and kept at 37 °C in a 5% CO2 humidified incubator. Cell were treated with compound 2 (60 to 7.5 µM) for 48 h and the supernatant was collected and cytokine quantification was achieved using the CBA Mouse Inflammation Kit (BD Biosciences) according to the manufacturer’s instructions. The fluorescence was measured using BD LSRFortessa flow cytometer (BD Biosciences) and the data analysis was performed using the software FCAP Array (v.3). LPS (50 μg/mL) was used as positive control and untreated parasites were used as negative control.

[6] = tested on: L. (L.) infantum promastigotes; test: Cell cycle analysis, propidium iodide, flow cytometry; format: cell-based, Leishmania (L.) infantum; details: 24 h; compound 2 190 µM, miltefosine 25 μM
Experimental: Promastigotes (2 × 10^6 parasites/well) in mid-log phase were incubated with compound 2 (190 µM) in M-199 medium for 24 h at 24 °C. Parasites were washed and fixed in 70% ice-cold ethanol overnight at −20 °C. After a further wash with PBS 1x, the promastigotes were ressuspended in propidium iodide (10 µg/mL, Molecular Probes) and RNase A (20 µg/mL, Molecular Probes) for 30 min in the dark at room temperature. The fluorescence intensity was analyses using Attune NxT flow cytometer (Thermo Fisher Scientific) with excitation filter wavelengths of 488 nm and emission of 574 nm (BL-2)[47]. Maximum change in the cell cycle was obtained in the presence of miltefosine (25 μM) and untreated parasites were used as negative control. Unstained parasites were used to set background fluorescence.

[7] = tested on: L. (L.) infantum promastigotes; test: Plasma membrane electric potential, DiSBAC2(3), flow cytometry; format: cell-based, Leishmania (L.) infantum
Experimental: Promastigotes (2 × 10^6 parasites/well) were treated with compound 2 (190 µM) for 1 and 2 h in HBSS + Glu at 24 °C. DiSBAC2(3) (Molecular Probes) were added (0.2 µM) and the parasites were incubated by 5 min[47]. The fluorescence was measure using Attune NxT flow cytometer (Thermo Fisher Scientific) with excitation and emission wavelengths of 488 and 574 nm (BL-2), respectively. Raloxifene (60 μM) was used as positive control and untreated parasites were used as negative control. Unstained parasites were used to set background fluorescence.

[8] = tested on: L. (L.) infantum promastigotes; test: Intracellular calcium levels, Fura-2 AM; format: cell-based, Leishmania (L.) infantum; details: 190 µM, 5, 20, 60 and 120 min
Experimental: Promastigotes (2 × 10^6 parasites/well) were pretreated with 5 µM of Fura-2 AM (Molecular Probes) in PBS 1x, for 40 min at 24 °C in the dark. The parasites were washed and treated with compound 2 (190 µM). The fluorescence was measured at 5, 20, 60 and 120 min, using a fluorimetric microplate reader (FilterMax F5 Multi-Mode, Molecular Devices) with excitation and emission wavelengths of 360 and 500 nm, respectively. Maximum levels of calcium were obtained using 0.5% Triton X-100 and untreated parasites were used as negative control.

[9] = tested on: L. (L.) infantum promastigotes; test: Promastigote viability, MTT colorimetric method; format: cell-based, Leishmania (L.) infantum
Experimental: Promastigotes (1 × 10^6 parasites/well) in 96-well plates were incubated with the four compounds (150 to 1.2 μM) for 96 h at 24 °C. The parasite viability was determined using the MTT colorimetric method. Miltefosine was used as standard, with untreated cells as a negative control. A parallel promastigote activity assay was performed for 2 h with compound 2 (200 to 1.56 μM) for mechanism of action studies. After this period of incubation with compound 2, the parasites were washed twice with M-199 medium and the parasite viability was determined using the MTT colorimetric method for 4 h incubation at 24 °C.

[10] = tested on: Fibroblast NCTC cells clone 929; test: Mammalian cytotoxicity, MTT colorimetric method; format: cell-based, murine; details: up to 200 μM, read-out: CC50 (µM) ± SD NCTC
Experimental: (§1) Fibroblast NCTC cells clone 929 (6 × 10^4 cells/well) in 96-well plates were incubated with the compounds up to 200 μM in a 5% CO2 humidified incubator at 37 °C. CC50 was determined by the MTT colorimetric method. The selectivity index was determined using the following equation: CC50 against NCTC cells/IC50 against amastigotes

[11] = tested on: L. (L.) infantum promastigotes; test: Ultrastructural analysis by transmission electron microscopy; format: cell-based, Leishmania (L.) infantum; set-up: dose or concentration left out as unconfirmed; details: (figure legend), 4 and 6 h
Experimental: […] Then, the parasites were washed, fixed in 2.5% glutaraldehyde in 0.1 M sodium cacodylate buffer (pH 7.3), postfixed in 1% osmium tetroxide. The parasites were dehydrated with acetone series and embedded in Epon resin. Ultrathin sections were stained with uranyl acetate and lead citrate. The material was analyzed under transmission electron microscopy (JEOL JEM-1011). Untreated parasites were used as negative control.

Leishmania = details: cited from earlier work
[12] = Mammalian cytotoxicity, MTT colorimetric method; format: cell-based, murine; details: mouse, NCTC clone 929 fibroblast cells, up to 200 μM, read-out: CC50 (µM) ± SD NCTC
Experimental: as §1

[13] = tested on: Trypanosoma cruzi parasites; set-up: method as in PMID 28864277; details: cited from earlier work
[14] = tested on: Trypanosoma cruzi parasites; details: cited from earlier work
L. (L.) amazonensis = tested on: L. (L.) amazonensis; set-up: method as in PMID 20064628; details: cited from earlier work
[15] = 96 h at 24 °C, MTT, read-out: IC50 (µM) ± SD Promastigote

In the case of “1-Propyl-3-(1′-propyl-3′-methoxyphenoxy)-5-methoxy-4-benzoyloxybenzene [Compound 2]”, the “mitochondrial membrane electric potential (ΔΨm), JC-1 BL-2/BL-1 ratio” value [1] is reported as “induced a significant (p < 0.0001) depolarization of the mitochondrial membrane potential”, the amastigotes eliminated ([2]; at the highest tested concentration) is reported as 100% and the IC50 [2] is reported as 6.1 ± 1.2 µM. For the same molecule, the “plasma membrane permeability (Sytox Green fluorescence)” value [3] was “No changes in the fluorescence levels were observed”, the ATP concentration [4] was “dose-dependent decrease of ATP concentration” and the MCP-1 levels ([5]; 60 μM, both macrophage groups) was “decrease this chemokine in both macrophage groups”. The TNF production ([5]; infected macrophages at 30 and 15 μM, uninfected at 60 and 30 μM) was “reduced the TNF production”, the “Proportion of promastigotes in different stages of cell cycle (% ± SD) G0/G1” value [6] was 52.3 ± 1.1 % and the “Proportion of promastigotes in different stages of cell cycle (% ± SD) M/G2” value [6] was 26.4 ± 0.1 %. The “Proportion of promastigotes in different stages of cell cycle (% ± SD) S” value [6] was 13.7 ± 0.7 %, the “Proportion of promastigotes in different stages of cell cycle (% ± SD) Sub G0” value [6] was 3.0 ± 0.2 % and the “plasma membrane electric potential (ΔΨp), DiSBAC2(3) fluorescence” value ([7]; 190 µM, 1 and 2 h, compared with untreated parasites) was “induced a significant (p < 0.0001) depolarization of the potential”. For the same molecule, the “cytosolic Ca2+ levels (Fura-2 AM)” value [8] was “induced a fast up-regulation of calcium levels, in a time-dependent manner”, the IC50 [9, 15] was 105 ± 9.4 µM and the IC50 ([9]; after 2 h of incubation, used for mechanism of action assays, read-out: second IC50 value against promastigotes) was 190 µM. For the same molecule, the CC50 [10] was > 200 µM and the “ultrastructural alterations (TEM)” value [11] was “intense swelling of the mitochondria with severe loss of cristae and matrix and concentric membranous structures inside this organelle”.

For `C/C=C/c1cc(OC)c2c(c1)[C@H](C)[C@@H](c1ccc(O)c(OC)c1)O2` [licarin A], the “anti-Leishmania effect and NO upregulation” value (Leishmania) is listed as “anti-Leishmania effect without NO upregulation”.

Molecule “1-Propyl-3-(1′-propyl-3′-methoxyphenoxy)-4,5-dimethoxybenzene [Compound 3]” has an IC50 [2] of 21.7 ± 1.9 µM, an IC50 [9, 15] of 29.6 ± 2.3 µM and a CC50 [10] of 57.7 ± 1.1 µM.

In the case of `CCCCCCCCCCCCCCCCOP(=O)([O-])OCC[N+](C)(C)C` [Miltefosine, reference compound], the IC50 ([2]; Leishmania infantum, Peritoneal macrophage) is reported as 6.5 ± 3 µM, the “SI (Selectivity Index)” value ([2]; ratio between CC50 in NCTC cells and IC50 in intracellular amastigotes) is reported as 18.4 and the “Proportion of promastigotes in different stages of cell cycle (% ± SD) G0/G1” value [6] is reported as 36.4 ± 1.3 %. The “Proportion of promastigotes in different stages of cell cycle (% ± SD) M/G2” value [6] was 31.4 ± 0.5 %, the “Proportion of promastigotes in different stages of cell cycle (% ± SD) S” value [6] was 12.3 ± 0.1 % and the “Proportion of promastigotes in different stages of cell cycle (% ± SD) Sub G0” value [6] was 10.1 ± 0.2 %. It also gave an IC50 ([9]; Leishmania infantum, 96 h at 24 °C, MTT, read-out: IC50 (µM) ± SD Promastigote) of 5.1 ± 0.6 µM and a CC50 [12] of 120 ± 4.2 µM.

With `O=C(c1ccc(OCCN2CCCCC2)cc1)c1c(-c2ccc(O)cc2)sc2cc(O)ccc12` [Raloxifene, reference compound] the “plasma membrane electric potential (ΔΨp), DiSBAC2(3) fluorescence” value ([7]; positive control, 60 μM) was “caused increased levels of fluorescence”.

For `C=CCc1ccc(Oc2cc([C@@H](O)C=C)cc(OC)c2OC)c(OC)c1` [1-[(7S)-hydroxy-8-propenyl]-3-[3′-methoxy-1′-(8′-propenyl)-phenoxy]-4,5-methoxybenzene], the “depolarization of the mitochondrial membrane” value [13] is listed as “induce depolarization of the mitochondrial membrane” and the plasma membrane permeabilization [14] is listed as “plasma membrane permeabilization was verified”.

In the case of `C=CCc1ccc(Oc2cc(CC=C)cc(OC)c2O)c(OC)c1` [dehydrodieugenol B], the plasma membrane permeabilization [14] is given as “plasma membrane permeabilization was verified”.

In the case of eupomatenoid-5, the “depolarization of the mitochondrial membrane” value (L. (L.) amazonensis) is given as “induce depolarization of the mitochondrial membrane”.
